How the values were obtained:
[1] = molecular target: T1, CYP2C8 (Homo sapiens, UniProt P10632); test: CYP Inhibition Assay (CYP2C8, human liver microsomes, paclitaxel substrate); assay type: in vitro ADME; details: pH 7.4; pooled human liver microsomes 0.1 mg/mL, probe substrate paclitaxel
T1 construct: Pooled human microsomes were obtained from Sekisui XenoTech, KS; tissue Sekisui XenoTech, KS; host or cells: pooled human liver microsomes
T1 sequence (P10632 1-490): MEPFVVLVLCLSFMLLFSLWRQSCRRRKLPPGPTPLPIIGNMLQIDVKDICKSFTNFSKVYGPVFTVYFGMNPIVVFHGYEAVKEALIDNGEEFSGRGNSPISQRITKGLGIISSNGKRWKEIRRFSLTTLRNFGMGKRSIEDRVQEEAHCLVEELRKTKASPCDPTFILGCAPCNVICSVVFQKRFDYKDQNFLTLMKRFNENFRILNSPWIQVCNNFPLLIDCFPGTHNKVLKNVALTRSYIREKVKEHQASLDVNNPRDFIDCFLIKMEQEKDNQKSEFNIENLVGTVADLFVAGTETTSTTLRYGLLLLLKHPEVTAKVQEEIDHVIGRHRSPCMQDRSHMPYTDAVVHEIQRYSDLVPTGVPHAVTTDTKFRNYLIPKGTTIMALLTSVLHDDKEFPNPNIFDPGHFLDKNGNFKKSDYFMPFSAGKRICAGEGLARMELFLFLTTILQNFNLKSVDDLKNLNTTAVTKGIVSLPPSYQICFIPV
Procedure, shortened: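 Pooled human liver microsomes (0.1 mg/mL) in 50 mM potassium phosphate pH 7.4 with compound, started with 1 mM NADPH, 5 min at 37° C, duplicate.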

[2] = molecular target: T2, GR (Homo sapiens, UniProt P04150); test: In Vitro GR Luciferase Reporter Assay (antagonist mode, CHO-K1-GR-MMTV-Luc reporter cells); assay type: cell-based; details: antagonist mode, 10 nM Dexamethasone
T2 construct: expressed in transfected cells; host or cells: CHO-K1
T2 sequence (P04150 1-777): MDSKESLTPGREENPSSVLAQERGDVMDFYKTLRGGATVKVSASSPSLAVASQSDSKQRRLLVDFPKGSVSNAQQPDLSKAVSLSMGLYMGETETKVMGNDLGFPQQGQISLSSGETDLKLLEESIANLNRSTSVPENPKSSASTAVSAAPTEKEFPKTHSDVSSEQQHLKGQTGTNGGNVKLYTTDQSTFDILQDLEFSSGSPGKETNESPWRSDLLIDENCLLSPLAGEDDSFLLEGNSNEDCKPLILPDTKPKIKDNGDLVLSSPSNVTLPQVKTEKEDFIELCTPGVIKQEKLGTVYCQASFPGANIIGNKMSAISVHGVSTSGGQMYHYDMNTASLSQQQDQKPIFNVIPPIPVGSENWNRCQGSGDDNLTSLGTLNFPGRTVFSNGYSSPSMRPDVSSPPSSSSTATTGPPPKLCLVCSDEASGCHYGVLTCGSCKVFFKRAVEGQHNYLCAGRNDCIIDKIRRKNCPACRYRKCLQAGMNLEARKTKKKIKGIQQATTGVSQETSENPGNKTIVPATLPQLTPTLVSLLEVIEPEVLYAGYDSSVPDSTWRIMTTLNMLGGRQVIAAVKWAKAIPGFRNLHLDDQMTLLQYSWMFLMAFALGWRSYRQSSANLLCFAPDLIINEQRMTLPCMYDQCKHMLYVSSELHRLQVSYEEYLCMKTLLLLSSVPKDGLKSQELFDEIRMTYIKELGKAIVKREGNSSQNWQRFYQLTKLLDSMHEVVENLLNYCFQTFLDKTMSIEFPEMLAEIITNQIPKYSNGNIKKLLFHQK
Procedure, shortened: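 CHO-K1-GR-MMTV-Luc cells in phenol red-free DMEM with 10% CSS, stimulated with 10 nM dexamethasone (final) and treated with 8-point 1:5 compound dilutions for about 18-24 h at 37° C. Luciferase measured by OneGlo luminescence; IC50 derived for inhibition of GR activity.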

Row | SMILES | inhibition at 5 min [1] | IC50 [2]
1 | CC(C)N([C@H]1CCC2=Cc3c(cnn3-c3ccc(F)cc3)C[C@]2(C(=O)c2ncc(C(F)(F)F)s2)C1)S(=O)(=O)c1cn(C)nn1 [Example 282, N-((4aS,6S)-1-(4-fluorophenyl)-4a-(5-(trifluoromethyl)thiazole-2-carbonyl)-4,4a,5,6,7,8-hexahydro-1H-benzo[f]indazol-6-yl)-N-isopropyl-1-methyl-1H-1,2,3-triazole-4-sulfonamide] | 25 to 50% | ≤ 100 nM
2 | CC(C)N([C@H]1CCC2=Cc3c(cnn3-c3ccc(F)cc3)C[C@]2(C(=O)c2ncc(C(F)(F)F)s2)C1)S(=O)(=O)c1ccc(Cl)nc1 [Example 283, 6-chloro-N-((4aS,6S)-1-(4-fluorophenyl)-4a-(5-(trifluoromethyl)thiazole-2-carbonyl)-4,4a,5,6,7,8-hexahydro-1H-benzo[f]indazol-6-yl)-N-isopropylpyridine-3-sulfonamide] | ≤ 25% | ≤ 100 nM
3 | CC(C)N([C@H]1CCC2=Cc3c(cnn3-c3ccc(F)cc3)C[C@]2(C(=O)c2cc(C(F)(F)F)ccn2)C1)S(=O)(=O)c1cn(C)nn1 [Example 286, N-((4aS,6S)-1-(4-fluorophenyl)-4a-(4-(trifluoromethyl)picolinoyl)-4,4a,5,6,7,8-hexahydro-1H-benzo[f]indazol-6-yl)-N-isopropyl-1-methyl-1H-1,2,3-triazole-4-sulfonamide] | 75 to 90% | ≤ 100 nM
4 | O=C(c1cc(C(F)(F)F)ccn1)[C@]12Cc3cnn(-c4ccc(F)cc4)c3C=C1CC[C@H](N(C1CC1)S(=O)(=O)c1ccc(Cl)cn1)C2 [Example 287, 5-chloro-N-cyclopropyl-N-((4aS,6S)-1-(4-fluorophenyl)-4a-(4-(trifluoromethyl)picolinoyl)-4,4a,5,6,7,8-hexahydro-1H-benzo[f]indazol-6-yl)pyridine-2-sulfonamide] | 25 to 50% | ≤ 100 nM
5 | Cn1ccc(S(=O)(=O)N([C@H]2CCC3=Cc4c(cnn4-c4ccc(F)cc4)C[C@]3(C(=O)c3cc(Cl)ccn3)C2)[C@H]2C[C@@](C)(O)C2)n1 [Example 288, N-((4aS,6S)-4a-(4-chloropicolinoyl)-1-(4-fluorophenyl)-4,4a,5,6,7,8-hexahydro-1H-benzo[f]indazol-6-yl)-N-((1s,3R)-3-hydroxy-3-methylcyclobutyl)-1-methyl-1H-pyrazole-3-sulfonamide] | ≤ 25% | ≤ 100 nM
6 | Cn1ccc(S(=O)(=O)[C@@]2(F)CCC3=Cc4c(cnn4-c4ccc(F)cc4)C[C@]3(C(=O)c3ccc(C(F)(F)F)cn3)C2)n1 [Example 289, ((4aS,6S)-6-fluoro-1-(4-fluorophenyl)-6-((1-methyl-1H-pyrazol-3-yl)sulfonyl)-1,4,5,6,7,8-hexahydro-4aH-benzo[f]indazol-4a-yl)(5-(trifluoromethyl)pyridin-2-yl)methanone] | ≤ 25% | ≤ 100 nM
7 | Cn1cc(S(=O)(=O)N(CC(F)(F)F)[C@H]2CCC3=Cc4c(cnn4-c4ccc(F)cc4)C[C@]3(C(=O)c3ncc(C(F)(F)F)s3)C2)nn1 [Example 290, N-((4aS,6S)-1-(4-fluorophenyl)-4a-(5-(trifluoromethyl)thiazole-2-carbonyl)-4,4a,5,6,7,8-hexahydro-1H-benzo[f]indazol-6-yl)-1-methyl-N-(2,2,2-trifluoroethyl)-1H-1,2,3-triazole-4-sulfonamide] | 25 to 50% | ≤ 100 nM
8 | Cn1cnc(S(=O)(=O)N(CC(F)(F)F)[C@H]2CCC3=Cc4c(cnn4-c4ccc(F)cc4)C[C@]3(C(=O)c3ncc(C(F)(F)F)s3)C2)c1 [Example 293, N-((4aS,6S)-1-(4-fluorophenyl)-4a-(5-(trifluoromethyl)thiazole-2-carbonyl)-4,4a,5,6,7,8-hexahydro-1H-benzo[f]indazol-6-yl)-1-methyl-N-(2,2,2-trifluoroethyl)-1H-imidazole-4-sulfonamide] | ≤ 25% | ≤ 100 nM
